Laboratory results taken from BindingDB's records for doi:10.1016/j.bmcl.2004.04.033 (Eli Lilly, 2004).
Where a name gives a salt, the structure may show the parent alone.

target: Cyclin-dependent kinase 4/G1/S-specific cyclin-D1 (Homo sapiens, UniProt P11802); assay: CDK Kinase Inhibition Assay; conditions: pH 7; 22 °C
Method: In vitro CDK assay using purified enzyme, was incubated at room temperature with substrate, and test compounds in the presence of ATP/[gamma-33P]ATP. 33P incorporation was measured with a Top Count (Packard). IC50 is the inhibitor concentration which inhibits 50% of kinase activity that catalyzes the transfer of the terminal phosphate from 33P labeled ATP to the substrate.

Cyclin-dependent kinase 4/G1/S-specific cyclin-D1, sequence (P11802 whole entry): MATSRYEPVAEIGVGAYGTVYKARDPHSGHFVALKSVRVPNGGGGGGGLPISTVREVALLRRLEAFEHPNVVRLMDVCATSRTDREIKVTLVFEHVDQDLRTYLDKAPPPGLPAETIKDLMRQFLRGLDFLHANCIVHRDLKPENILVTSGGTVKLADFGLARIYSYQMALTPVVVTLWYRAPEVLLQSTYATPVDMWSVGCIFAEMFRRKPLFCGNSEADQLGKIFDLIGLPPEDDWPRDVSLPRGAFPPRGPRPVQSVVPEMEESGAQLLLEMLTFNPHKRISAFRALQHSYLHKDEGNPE
Cyclin-dependent kinase 4/G1/S-specific cyclin-D1, sequence (P24385 whole entry, further chain): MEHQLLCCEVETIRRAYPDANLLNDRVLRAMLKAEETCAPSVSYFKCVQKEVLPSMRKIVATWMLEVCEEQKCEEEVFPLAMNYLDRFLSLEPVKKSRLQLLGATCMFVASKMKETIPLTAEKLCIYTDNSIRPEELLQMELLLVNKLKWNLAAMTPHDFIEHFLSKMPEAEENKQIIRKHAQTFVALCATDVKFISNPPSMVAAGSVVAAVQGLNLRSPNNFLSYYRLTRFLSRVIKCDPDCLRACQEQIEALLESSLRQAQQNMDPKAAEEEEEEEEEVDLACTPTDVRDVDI

Structure (SMILES)	IC50 [nM]
COC(=O)CC(NCC1Cc2cccc3c4c5c(c6c7ccc(F)cc7[nH]c6c4n(c23)C1)C(=O)NC5=O)C(=O)OC (stereo not given) [1,4-dimethyl 2-[({7-fluoro-13,15-dioxo-1,4,14-triazaheptacyclo[16.7.1.0^{2,17}.0^{3,11}.0^{5,10}.0^{12,16}.0^{22,26}]hexacosa-2(17),3(11),5(10),6,8,12(16),18(26),19,21-nonaen-24-yl}methyl)amino]butanedioate]	671
CNCC1Cc2cccc3c4c5c(c6c7ccc(F)cc7[nH]c6c4n(c23)C1)C(=O)NC5=O (stereo not given) [7-fluoro-24-[(methylamino)methyl]-1,4,14-triazaheptacyclo[16.7.1.0^{2,17}.0^{3,11}.0^{5,10}.0^{12,16}.0^{22,26}]hexacosa-2(17),3(11),5(10),6,8,12(16),18(26),19,21-nonaene-13,15-dione hydrochloride]	8
O=C1NC(=O)c2c1c1c3ccc(F)cc3[nH]c1c1c2c2cccc3c2n1CC(CCl)C3 (stereo not given) [24-(chloromethyl)-7-fluoro-1,4,14-triazaheptacyclo[16.7.1.0^{2,17}.0^{3,11}.0^{5,10}.0^{12,16}.0^{22,26}]hexacosa-2(17),3(11),5(10),6,8,12(16),18(26),19,21-nonaene-13,15-dione]	64

Now from value to compound:

IC50 [nM]	Structure (SMILES)
898	CN(C)CC1Cc2cccc3c4c5c(c6c7ccccc7[nH]c6c4n(c23)C1)C(=O)NC5=O (stereo not given) [24-[(dimethylamino)methyl]-1,4,14-triazaheptacyclo[16.7.1.0^{2,17}.0^{3,11}.0^{5,10}.0^{12,16}.0^{22,26}]hexacosa-2(17),3(11),5(10),6,8,12(16),18(26),19,21-nonaene-13,15-dione]
> 2000	NC(=O)[C@@H]1CCCN1CC1Cc2cccc3c4c5c(c6c7ccc(F)cc7[nH]c6c4n(c23)C1)C(=O)NC5=O (stereo partly drawn) [(2S)-1-({7-fluoro-13,15-dioxo-1,4,14-triazaheptacyclo[16.7.1.0^{2,17}.0^{3,11}.0^{5,10}.0^{12,16}.0^{22,26}]hexacosa-2(17),3(11),5(10),6,8,12(16),18(26),19,21-nonaen-24-yl}methyl)pyrrolidine-2-carboxamide]

target: cAMP-dependent protein kinase catalytic subunit alpha (Bos taurus, UniProt P00517); assay: CDK Kinase Inhibition Assay; conditions: 25 °C

Structure (SMILES)	IC50 [nM]
O=C1NC(=O)c2c1c1c3ccc(Br)cc3[nH]c1c1c2c2cccc3c2n1CC(CO)C3 (stereo not given) [7-bromo-24-(hydroxymethyl)-1,4,14-triazaheptacyclo[16.7.1.0^{2,17}.0^{3,11}.0^{5,10}.0^{12,16}.0^{22,26}]hexacosa-2(17),3(11),5(10),6,8,12(16),18(26),19,21-nonaene-13,15-dione]	> 2000
O=C1NC(=O)c2c1c1c3ccc(F)cc3[nH]c1c1c2c2cccc3c2n1CC(CO)C3 (stereo not given) [7-fluoro-24-(hydroxymethyl)-1,4,14-triazaheptacyclo[16.7.1.0^{2,17}.0^{3,11}.0^{5,10}.0^{12,16}.0^{22,26}]hexacosa-2(17),3(11),5(10),6,8,12(16),18(26),19,21-nonaene-13,15-dione]	> 2000
CNCC1Cc2cccc3c4c5c(c6c7ccc(F)cc7[nH]c6c4n(c23)C1)C(=O)NC5=O (stereo not given) [7-fluoro-24-[(methylamino)methyl]-1,4,14-triazaheptacyclo[16.7.1.0^{2,17}.0^{3,11}.0^{5,10}.0^{12,16}.0^{22,26}]hexacosa-2(17),3(11),5(10),6,8,12(16),18(26),19,21-nonaene-13,15-dione hydrochloride]	383
O=C1NC(=O)c2c1c1c3ccc(F)cc3[nH]c1c1c2c2cccc3c2n1C(CO)CC3 (stereo not given) [7-fluoro-25-(hydroxymethyl)-1,4,14-triazaheptacyclo[16.7.1.0^{2,17}.0^{3,11}.0^{5,10}.0^{12,16}.0^{22,26}]hexacosa-2(17),3(11),5(10),6,8,12(16),18(26),19,21-nonaene-13,15-dione]	> 2000
O=C1NC(=O)c2c1c1c3ccccc3[nH]c1c1c2c2cccc3c2n1CCC3CO (stereo not given) [23-(hydroxymethyl)-1,4,14-triazaheptacyclo[16.7.1.0^{2,17}.0^{3,11}.0^{5,10}.0^{12,16}.0^{22,26}]hexacosa-2(17),3(11),5(10),6,8,12(16),18(26),19,21-nonaene-13,15-dione]	> 2000

The remaining lines, values ahead:

IC50 [nM]	Structure (SMILES)
> 2000	O=C1NC(=O)c2c1c1c3ccccc3[nH]c1c1c2c2cccc3c2n1CC(CO)C3 (stereo not given) [24-(hydroxymethyl)-1,4,14-triazaheptacyclo[16.7.1.0^{2,17}.0^{3,11}.0^{5,10}.0^{12,16}.0^{22,26}]hexacosa-2(17),3(11),5(10),6,8,12(16),18(26),19,21-nonaene-13,15-dione]
> 2000	O=C1NC(=O)c2c1c1c3ccc(C(F)(F)F)cc3[nH]c1c1c2c2cccc3c2n1CC(CO)C3 (stereo not given) [24-(hydroxymethyl)-7-(trifluoromethyl)-1,4,14-triazaheptacyclo[16.7.1.0^{2,17}.0^{3,11}.0^{5,10}.0^{12,16}.0^{22,26}]hexacosa-2(17),3(11),5(10),6,8,12(16),18(26),19,21-nonaene-13,15-dione]
> 2000	COc1ccc2c(c1)[nH]c1c2c2c(c3c4cccc5c4n(c13)CC(CO)C5)C(=O)NC2=O (stereo not given) [24-(hydroxymethyl)-7-methoxy-1,4,14-triazaheptacyclo[16.7.1.0^{2,17}.0^{3,11}.0^{5,10}.0^{12,16}.0^{22,26}]hexacosa-2(17),3(11),5(10),6,8,12(16),18(26),19,21-nonaene-13,15-dione]
> 2000	O=C1NC(=O)c2c1c1c3ccccc3ccc1c1c2c2cccc3c2n1CC(CO)C3 (stereo not given) [25-(hydroxymethyl)-1,15-diazaheptacyclo[17.7.1.0^{2,18}.0^{3,12}.0^{6,11}.0^{13,17}.0^{23,27}]heptacosa-2(18),3(12),4,6(11),7,9,13(17),19(27),20,22-decaene-14,16-dione]
> 2000	O=C1NC(=O)c2c1c1c3ccccc3ccc1c1c2c2cccc3c2n1C(CO)CC3 (stereo not given) [26-(hydroxymethyl)-1,15-diazaheptacyclo[17.7.1.0^{2,18}.0^{3,12}.0^{6,11}.0^{13,17}.0^{23,27}]heptacosa-2(18),3(12),4,6(11),7,9,13(17),19(27),20,22-decaene-14,16-dione]
